Source: the supplement of paper PMC11451515

What was measured:
Assay in all cases: AUC of viability dose-response curve (% viability x log10 dose units); higher = less sensitive
Details in all cases: 48 h
NOMO1 = tested on: NOMO1
In short: (§1)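 Leukemia cells adapted to each medium were seeded in 1536-well plates (500 or 1000 cells/well). They were dosed with library compounds in DMSO at 11 threefold doses, 47 μM to 0.79 nM, for 48 h at 37°C. CellTiter-Glo One luminescence was normalised per plate to DMSO and cell-free wells. Area under the curve was integrated by trapezoidal rule over log10 doses on a four-parameter log-logistic fit; curves exceeding full viability were scaled and curves failing quality control removed.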

SEM cells = tested on: SEM cells
In short: as §1

P12-Ichikawa = tested on: P12-Ichikawa
In short: as §1

[1] = RPMI 5 mM glucose + 10% dialyzed FBS

Compound	AUC of viability dose-response curve (NOMO1; HPLM + 10% dialyzed FBS)	AUC of viability dose-response curve (NOMO1; RPMI 5 mM glucose + 10% FBS)	AUC of viability dose-response curve (NOMO1; [1])	AUC of viability dose-response curve (SEM cells; HPLM + 10% dialyzed FBS)	AUC of viability dose-response curve (SEM cells; RPMI 5 mM glucose + 10% FBS)	AUC of viability dose-response curve (SEM cells; [1])	AUC of viability dose-response curve (P12-Ichikawa; HPLM + 10% dialyzed FBS)	AUC of viability dose-response curve (P12-Ichikawa; RPMI 5 mM glucose + 10% FBS)	AUC of viability dose-response curve (P12-Ichikawa; [1])
Cc1c(C)n(Cc2ccc(-c3ccccc3C(=O)O)cc2)c2ccc(C(=O)N[C@@H](C)c3ccc([N+](=O)[O-])cc3)cc12	421	411	417	460	466	470	425	423	422
Cc1nn(Cc2ccccc2Cl)c(C)c1CN(C)CC(O)COc1ccc(Cl)cc1 (stereo not drawn)	445	428	436	436	432	430	463	440	435
CNC(=O)c1ccc2cc(C3(O)CCn4cncc43)ccc2c1 (stereo not drawn)	458	456	456	441	450	452	453	469	453
CNc1nc(Nc2ccc(C(=O)N3CCOCC3)cc2OC)ncc1Cl	434	463	450	434	456	466	448	454	466
OC[C@H]1O[C@H]([C@H](O)[C@@H]1O)N2\C=C/C(=O)NC2=O	448	429	455	463	447	450	473	456	466
CC(C)(C)OC(=O)N[C@H]1CCCCC/C=C\[C@@H]2C[C@@]2(C(=O)N[S+](=O)([O-])C2CC2)NC(=O)[C@@H]2C[C@@H](OC(=O)N3Cc4cccc(F)c4C3)CN2C1=O	457	468	472	401	441	466	468	467	459
Clc1ccc(-c2nc3sccn3c2/C=N/OCc2ccc(Cl)c(Cl)c2)cc1	445	451	461	453	430	455	448	463	454
C[C@@]12C(=O)OC(=O)[C@@]1(C)C1CCC2O1	391	371	392	400	392	377	407	405	407
CC[C@H](NC1=C2N=C[NH]C2=NC=N1)C/3=N/C4=C(C(=CC=C4)F)C(=O)N3C5=CC=CC=C5	433	450	432	411	430	442	436	395	401
O=C(Nc1cc(Cl)cc2c1[nH]c1cnccc12)c1cccnc1	467	477	471	468	452	437	471	461	457
O=C(O)Cn1nnc(-c2cc(N3CCC(Oc4cc(F)ccc4Br)CC3)no2)n1	357	340	361	422	464	459	413	415	428
CC(C)(C)NC(=O)Nc1cccc(Nc2ncc(F)c(NC(C)(C)CO)n2)c1	477	450	459	415	396	397	415	425	429
C[C@@H]1COCCN1c1cc(C2([S@+](C)(=N)[O-])CC2)nc(-c2ccnc3[nH]ccc23)n1	358	390	382	333	335	336	380	381	368
C[S+](=O)([O-])Nc1ccc([N+](=O)[O-])cc1Oc1ccccc1	452	465	464	467	449	464	461	456	460
C[C@]12CC[C@@H]3c4ccc(O)cc4CC[C@H]3[C@@H]1[C@@H](O)[C@@H](O)[C@@H]2O	461	471	468	465	448	461	468	457	450
CC(C)N[C@@H]1CCn2c(=O)[nH]c3cccc(c32)[C@H]1O	426	460	424	463	465	473	459	437	457
CN(C)C1CCN(C(=O)c2ccc(NC(=O)Nc3nc(N4CCOCC4)nc(N4CCOCC4)n3)cc2)CC1	271	296	272	252	248	247	340	270	275
